Reference: patent US20060160869A1, “Ubiquitin ligase inhibitors” (Rigel Pharmaceuticals, Inc., priority 2005, published 2006)

Tests used:
Format in all cases: biochemical
MDM2 = MDM2 (Homo sapiens, UniProt Q00987); test: Plate-based E3 ligase assay, MDM2 autoubiquitination (MDM2-FLAG); conditions: Table 2; read-out: MDM2 IC50
Description: (§1) E3 (His-APC11/APC2—“APC”) auto-ubiquitination was measured as described in U.S. patent application Ser. No. 09/826,312 (Publication No. US-2002-0042083-A1), which is incorporated herein in its entirety. Details of the protocol are described below. Activity in the presence of the compound was determined relative to a parallel control in which only DMSO was added. Values of the IC50 were typically determined using 6 or 8 different concentrations of the compound, although as few as 2 concentrations may be used to approximate the IC50 value.
(§2) Nickel-coated 96-well plates (Pierce 15242) were blocked for 1 hour with 100 μl of blocking buffer at room temperature. The plates were washed 4 times with 225 μl of 1×PBS and 80 μl of the reaction buffer were added that contained 100 ng/well of Flag-ubiquitin. To this, 10 μl of the test compound diluted in DMSO were added. After the test compound was added, 10 μl of E1 (human), E2 (Ubch5c), and APC in Protein Buffer was added to obtain a final concentration of 5 ng/well of E1, 20 ng/well: of E2 and 100 ng/well of APC. The plate were shaken for 10 minutes and incubated at room temperature for 1 hour. After incubation, the plates were washed 4 times with 225 μl of 1×PBS and 100 μl/well of Antibody Mix were added to each well. The plates were incubate at room temperature for another hour after which they were washed 4 times with 225 μl of 1×PBS and 100 μl/well of Lumino substrate were added to each well. The luminescence was measured by using a BMG luminescence microplate reader.
In similar manner, autoubiquitination of the E3 MDM2 was determined (MDM2-FLAG). Further instruction in such assays can be found in U.S. patent application Ser. No. 10/108,767 (Publication No. US-2003-0104474 A1), which is incorporated herein in its entirety.
hMDM2 Plate/Gel is Mouse double minute 2, human homolog. This protein belongs to the E3 RING finger ligase group.

[1] = target: E3 (His-APC11/APC2, "APC") (Homo sapiens, UniProt Q9NYG5+Q9UJX6); test: Plate-based E3 ligase assay (APC FLAG), auto-ubiquitination; conditions: Table 2; read-out: APC IC50
Sequence of E3 (His-APC11/APC2, "APC") (Q9NYG5 whole entry): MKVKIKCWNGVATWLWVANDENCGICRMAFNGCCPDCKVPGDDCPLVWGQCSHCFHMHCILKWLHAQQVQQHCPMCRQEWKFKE
Sequence of E3 (His-APC11/APC2, "APC") (Q9UJX6 whole entry): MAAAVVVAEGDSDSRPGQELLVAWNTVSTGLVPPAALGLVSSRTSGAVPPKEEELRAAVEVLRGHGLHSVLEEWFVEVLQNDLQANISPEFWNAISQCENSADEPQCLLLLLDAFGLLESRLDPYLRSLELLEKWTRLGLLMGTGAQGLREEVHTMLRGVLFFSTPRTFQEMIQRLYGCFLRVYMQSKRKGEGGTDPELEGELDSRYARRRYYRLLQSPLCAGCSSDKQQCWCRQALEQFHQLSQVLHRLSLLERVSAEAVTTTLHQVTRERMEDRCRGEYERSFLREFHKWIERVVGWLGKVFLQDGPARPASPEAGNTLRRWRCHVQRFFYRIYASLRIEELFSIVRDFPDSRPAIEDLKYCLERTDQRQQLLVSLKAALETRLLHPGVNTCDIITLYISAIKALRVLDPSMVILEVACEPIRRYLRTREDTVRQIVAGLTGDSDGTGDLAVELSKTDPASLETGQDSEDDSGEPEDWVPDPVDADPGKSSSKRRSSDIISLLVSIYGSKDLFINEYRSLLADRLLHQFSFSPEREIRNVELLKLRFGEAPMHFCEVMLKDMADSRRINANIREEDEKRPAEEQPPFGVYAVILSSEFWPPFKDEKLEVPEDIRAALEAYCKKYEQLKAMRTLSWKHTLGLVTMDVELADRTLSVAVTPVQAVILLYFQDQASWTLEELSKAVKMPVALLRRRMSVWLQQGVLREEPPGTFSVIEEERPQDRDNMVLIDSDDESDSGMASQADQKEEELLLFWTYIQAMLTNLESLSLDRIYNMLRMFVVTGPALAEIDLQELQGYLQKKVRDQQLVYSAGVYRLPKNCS
Description: as §1, §2
APC Plate/gel is Anaphase Promoting Complex. This protein also belongs to E3 RING finger ligase group.

E2 (Ubch5c) = E2 (Ubch5c) (Homo sapiens, UniProt P61077); test: E2 ligase assay, E2 auto-ubiquitination; conditions: Table 2
Sequence of E2 (Ubch5c) (P61077 whole entry): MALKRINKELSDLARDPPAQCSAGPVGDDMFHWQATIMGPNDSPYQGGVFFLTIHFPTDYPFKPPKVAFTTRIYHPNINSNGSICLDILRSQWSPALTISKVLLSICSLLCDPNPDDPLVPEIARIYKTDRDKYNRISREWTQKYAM
Description: E2 (Ubch5c) auto-ubiquitination was measured as described in U.S. patent application Ser. No. 09/826,312 (Publication No. US-2002-0042083-A1), which is incorporated herein in its entirety. Details of the protocol are described below. Activity in the presence of the test compound was determined relative to a parallel control in which only DMSO was added. The IC50 values were typically determined using 6 or 8 different concentrations of compound, although as few as 2 concentrations may be used to approximate IC50 values.
Corning 96-well plates (Corning 3650) were blocked with 100 μl of Blocking Buffer for 1 hour at room temperature. The plates were washed for 4 times with 225 μl of 1×PBS and 80 μl of the reaction buffer were added that contained 100 ng/well of Flag-ubiquitin. To this, 10 μl of the test compound diluted in DMSO were added. After the test compound was added, 10 μl of E1 (human) and E2 (Ubch5c) in Protein Buffer were added to obtain a final concentration of 5 ng/well of E1 and 20 ng/well of E2. The plates were shaken for 10 minutes and incubated at room temperature for 1 hour. After incubation, the reaction was stopped by adding 25 μl of loading buffer (non-reducing) per well and the plates were heated at 95° C. for 5 minutes. An aliquot of each well was run on a 10% NugePage Gel and analyzed by Western Blot using the antibody mix and Lumino substrate described below. The luminescence was measured using a BMG luminescence microplate reader.

Sequence of MDM2 (Q00987 whole entry): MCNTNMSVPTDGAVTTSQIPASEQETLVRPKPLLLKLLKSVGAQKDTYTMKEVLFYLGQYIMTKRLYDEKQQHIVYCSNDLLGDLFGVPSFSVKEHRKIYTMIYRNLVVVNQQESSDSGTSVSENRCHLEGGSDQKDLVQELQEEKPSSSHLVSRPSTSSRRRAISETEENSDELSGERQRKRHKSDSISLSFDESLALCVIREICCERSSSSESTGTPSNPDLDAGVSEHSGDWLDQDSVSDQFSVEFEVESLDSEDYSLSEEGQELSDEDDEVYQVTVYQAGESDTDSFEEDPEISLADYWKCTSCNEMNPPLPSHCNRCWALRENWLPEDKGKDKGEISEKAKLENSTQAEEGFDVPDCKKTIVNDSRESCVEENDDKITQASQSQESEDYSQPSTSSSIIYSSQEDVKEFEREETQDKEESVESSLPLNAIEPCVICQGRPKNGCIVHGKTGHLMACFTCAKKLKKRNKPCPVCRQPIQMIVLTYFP

Row | SMILES | IC50 (MDM2) [µM] | IC50 [1] [µM] | IC50 (E2 (Ubch5c)) [µM]
1 | COc1ccc(OC)c(-c2csc(N(Cc3ccc(C(=O)N4CCNCC4)cc3)Cc3cccc(OC(F)(F)F)c3)n2)c1 [compound 267] | ≥ 20 | 1 to 20 | –
2 | COc1ccc(-c2csc(N(Cc3ccc(C(=O)N4CCNCC4)cc3)Cc3cccc(OC(F)(F)F)c3)n2)cc1 [compound 222] | ≥ 20 | ≥ 20 | –
3 | O=C(O)CNC(=O)c1ccc(CN(Cc2ccccc2)c2nc(-c3ccccc3)cs2)cc1 [compound 216] | 1 to 20 | – | –
4 | O=C(c1ccc(CN(Cc2cccc(OC(F)(F)F)c2)c2nc(-c3ccc(Cl)cc3)cs2)cc1)N1CCNCC1 [compound 251] | ≥ 20 | ≥ 20 | –
5 | O=C(O)CNC(=O)c1ccc(CN(CCc2ccccc2)c2nc(-c3ccccc3)cs2)cc1 [compound 186] | 1 to 20 | – | –
6 | O=C(c1ccc(CN(CCOc2ccccc2)c2nc(-c3ccc(Cl)cc3)cs2)cc1)N1CCNCC1 [compound 252] | ≥ 20 | 1 to 20 | –
7 | COc1ccccc1-c1csc(N(CCN(C(C)C)C(C)C)Cc2ccc(C(=O)N3CCNCC3)cc2)n1 [compound 292] | ≥ 20 | ≥ 20 | –
8 | COc1cccc(CN(Cc2ccc(C(=O)N3CCNCC3)cc2)c2nc(-c3ccccc3Cl)cs2)c1OC [compound 345] | ≥ 20 | 1 to 20 | ≥ 20
9 | O=C(c1ccc(CN(Cc2cccc(OC(F)(F)F)c2)c2nc(-c3ccc(Br)cc3)cs2)cc1)N1CCNCC1 [compound 343] | 1 to 20 | 1 to 20 | –
10 | COc1cccc(CN(Cc2ccc(C(=O)N3CCNCC3)cc2)c2nc(-c3ccc(Cl)c(Cl)c3)cs2)c1OC [compound 297] | 1 to 20 | 1 to 20 | ≥ 20
11 | O=C(c1ccc(CN(CCOc2ccccc2)c2nc(-c3ccc(F)cc3)cs2)cc1)N1CCNCC1 [compound 290] | ≥ 20 | ≥ 20 | –
12 | COc1ccccc1-c1csc(N(Cc2ccc(C(=O)N3CCNCC3)cc2)Cc2cccc(OC(F)(F)F)c2)n1 [compound 328] | 1 to 20 | 1 to 20 | ≥ 20
13 | CCN(Cc1ccc(C(=O)NCc2cccc(CN)c2)cc1)c1nc(-c2ccc(-c3ccccc3)cc2)cs1 [compound 65] | 1 to 20 | 1 to 20 | –
14 | COc1ccc(OC)c(-c2csc(N(Cc3ccc(C(=O)NCC(=O)O)cc3)c3ccccc3F)n2)c1 [compound 215] | < 1 | 1 to 20 | –
15 | COc1cccc(CN(Cc2ccc(C(=O)N3CCNCC3)cc2)c2nc(-c3ccc(C)cc3)cs2)c1OC [compound 283] | – | ≥ 20 | –
16 | COc1cccc(CN(Cc2ccc(C(=O)N3CCNCC3)cc2)c2nc(-c3cccc([N+](=O)[O-])c3)cs2)c1OC [compound 224] | ≥ 20 | ≥ 20 | –
17 | Cc1ccc(-c2csc(N(Cc3ccc(C(=O)N4CCNCC4)cc3)Cc3cccc(OC(F)(F)F)c3)n2)cc1 [compound 235] | 1 to 20 | 1 to 20 | –
18 | CN(Cc1ccc(C(=O)NC(Cc2ccccc2)C(=O)O)cc1)c1nc(-c2ccc(Cl)cc2)cs1 (stereo not drawn) [compound 15] | 1 to 20 | 1 to 20 | –

Row | SMILES | IC50 (MDM2) [µM] | IC50 [1] [µM] | IC50 (E2 (Ubch5c)) [µM]
19 | COc1cccc(-c2csc(N(CCN(C(C)C)C(C)C)Cc3ccc(C(=O)N4CCNCC4)cc3)n2)c1 [compound 231] | ≥ 20 | ≥ 20 | –
20 | COc1ccc(-c2csc(N(Cc3ccc(C(=O)N4CCNCC4)cc3)Cc3cccc(OC)c3OC)n2)cc1 [compound 291] | ≥ 20 | 1 to 20 | –
21 | CCN(Cc1ccc(C(=O)NCC(=O)O)cc1)c1nc(-c2ccc(Cl)cc2)cs1 [compound 146, N-(4-{[[4-(4-chlorophenyl)-1,3-thiazol-2-yl](ethyl)amino]methyl}benzoyl)glycine] | ≥ 20 | – | –
22 | COc1ccc(OC)c(-c2csc(N(CCOc3ccccc3)Cc3ccc(C(=O)N4CCNCC4)cc3)n2)c1 [compound 268] | ≥ 20 | ≥ 20 | –
23 | O=C(c1ccc(CN(Cc2cccc(OC(F)(F)F)c2)c2nc(-c3cccc([N+](=O)[O-])c3)cs2)cc1)N1CCNCC1 [compound 228] | ≥ 20 | 1 to 20 | –
24 | COc1ccc(-c2csc(N(CCOc3ccccc3)Cc3ccc(C(=O)N4CCNCC4)cc3)n2)cc1 [compound 223] | ≥ 20 | ≥ 20 | –
25 | COc1cccc(CN(Cc2ccc(C(=O)N3CCNCC3)cc2)c2nc(-c3ccc(Cl)cc3)cs2)c1OC [compound 245] | ≥ 20 | 1 to 20 | –
26 | COc1cccc(-c2csc(N(Cc3ccccc3)Cc3ccc(C(=O)NCC(=O)O)cc3)n2)c1 [compound 177] | < 1 | – | –
27 | Cc1sc(N(C)Cc2ccc(C(=O)NCc3cccc(CN)c3)cc2)nc1-c1ccccc1 [compound 14] | ≥ 20 | ≥ 20 | –
28 | COc1ccc(-c2csc(N(CCN(C(C)C)C(C)C)Cc3ccc(C(=O)N4CCNCC4)cc3)n2)cc1 [compound 227] | ≥ 20 | ≥ 20 | –
29 | COc1cccc(CN(Cc2ccc(C(=O)N3CCNCC3)cc2)c2nc(-c3ccc(C)cc3)cs2)c1OC [compound 230] | ≥ 20 | 1 to 20 | –
30 | O=C(c1ccc(CN(Cc2cccc(OC(F)(F)F)c2)c2nc(-c3ccc(Cl)c(Cl)c3)cs2)cc1)N1CCNCC1 [compound 359] | 1 to 20 | 1 to 20 | –
31 | O=C(c1ccc(CN(c2nc(-c3ccc(Cl)cc3)cs2)c2cccc3ccccc23)cc1)N1CCNCC1 [compound 289] | ≥ 20 | ≥ 20 | –
32 | COc1ccc(OC)c(-c2csc(N(Cc3ccccc3)Cc3ccc(C(=O)NCC(=O)O)cc3)n2)c1 [compound 207] | 1 to 20 | – | –
33 | CCN(Cc1ccc(C(=O)NCC(=O)O)cc1)c1nc(-c2ccc(-c3ccccc3)cc2)cs1 [compound 193] | 1 to 20 | – | –
34 | CC(C)N(CCN(Cc1ccc(C(=O)N2CCNCC2)cc1)c1nc(-c2ccccc2Cl)cs1)C(C)C [compound 225] | ≥ 20 | ≥ 20 | –
35 | O=C(c1ccc(CN(CCOc2ccccc2)c2nc(-c3ccc(Br)cc3)cs2)cc1)N1CCNCC1 [compound 344] | 1 to 20 | 1 to 20 | –
